Converted amounts (≈) assume the structure as drawn.

What is called MIC is the smallest concentration in the dilution series that meets the test's criterion for growth inhibition. A high value points to a less susceptible organism. The CC50 is the concentration giving 50% cytotoxicity. Low readings indicate greater toxicity to the cells, high ones lower toxicity to the cells. One may read the IC50 as the concentration that gives 50% inhibition.

The nature of series [1]: Selectivity index, ratio of CC50 for human HCT116 cells to MIC for dormant stage of Mycobacterium bovis BCG ATCC 35734. To be noted: read-out: Selectivity Index. The series is classed as toxicity, cell-based, HCT-116.
Series [2] concerns Mycobacterium tuberculosis. The series is described as follows: Antimycobacterial activity against active stage of Mycobacterium tuberculosis H37Ra ATCC 25177 measured on day 8 by XTT reduction menadione assay. It counts as functional, organism-based. To be noted: H37Ra ATCC 25177, 192 h.
Series [3] can be described thus: Selectivity index, ratio of CC50 for human THP1 cells to MIC for dormant stage of Mycobacterium bovis BCG ATCC 35734. It counts as toxicity, cell-based, THP-1. To be noted: read-out: Selectivity Index.
Series [4] can be described thus: Selectivity index, ratio of CC50 for human HeLa cells to MIC for dormant stage of Mycobacterium bovis BCG ATCC 35734. It counts as toxicity, cell-based. Particulars: read-out: Selectivity Index.
The nature of series [5]: Cytotoxicity against human HCT116 cells by MTT assay. It counts as cell-based, HCT-116.
The nature of series [6]: Selectivity index, ratio of CC50 for human THP1 cells to MIC for active stage of Mycobacterium bovis BCG ATCC 35734. The series is classed as toxicity, cell-based, THP-1. To be noted: read-out: Selectivity Index.
Series [7] is described as follows: Cytotoxicity against human THP1 cells by MTT assay. It counts as cell-based, THP-1. (In general: Formazan colour is commonly taken as a measure of viable cells.)
Series [8] can be described thus: Cytotoxicity against human HeLa cells by MTT assay. The series is classed as cell-based.
A short description of series [9]: Selectivity index, ratio of CC50 for human HCT116 cells to MIC for active stage of Mycobacterium bovis BCG ATCC 35734. Particulars: read-out: Selectivity Index. It counts as toxicity, cell-based, HCT-116.
Series [10] relates to Mycobacterium tuberculosis. The series is described as follows: Antimycobacterial activity against dormant stage of Mycobacterium tuberculosis H37Ra ATCC 25177 measured on day 12 by XTT reduction menadione assay. It counts as functional, organism-based. To be noted: H37Ra ATCC 25177, 288 h.
Series [11] can be described thus: Selectivity index, ratio of CC50 for human PANC1 cells to MIC for dormant stage of Mycobacterium bovis BCG ATCC 35734. The series is classed as toxicity, cell-based, PANC-1. Particulars: read-out: Selectivity Index.
Series [12] can be described thus: Selectivity index, ratio of CC50 for human HeLa cells to MIC for active stage of Mycobacterium bovis BCG ATCC 35734. Particulars: read-out: Selectivity Index. The series is classed as toxicity, cell-based.
Series [13] can be described thus: Selectivity index, ratio of CC50 for human PANC1 cells to MIC for active stage of Mycobacterium bovis BCG ATCC 35734. The series is classed as toxicity, cell-based, PANC-1. To be noted: read-out: Selectivity Index.
A short description of series [14]: Cytotoxicity against human PANC1 cells by MTT assay. It counts as cell-based, PANC-1.

`CO[C@H]1/C=C/O[C@@]2(C)Oc3c(C)c(O)c4c(O)c(c(/C=N/N5CCN(C)CC5)c(O)c4c3C2=O)NC(=O)/C(C)=C\C=C\[C@H](C)[C@H](O)[C@@H](C)[C@@H](O)[C@@H](C)[C@H](OC(C)=O)[C@@H]1C` [RIFAMPIN]: the selectivity ratio in series [1] worked out at 714; in series [3], 714; in [4], 714; in [6] it was 1250; in [9], 1250; in [11], 714. The selectivity ratio in series [12] and in series [13] was 1250 throughout. Moreover, the MIC in series [2] is 0.02 µg/mL (≈ 0.0243 µM); in series [10], 0.03 µg/mL (≈ 0.0365 µM). The 50% cytotoxic concentration (CC50) in [5], in series [7], in series [8] and in series [14] was more than 100 µg/mL throughout. In addition, the 50% inhibitory concentration (IC50) in [10] came to 0.0024 µg/mL (≈ 0.00292 µM).
Turning to `Cc1cccc(-c2nnc(-c3sc(-c4cccnc4)nc3C)o2)c1`, the selectivity ratio in series [1], in [3], in series [4], in series [6], in series [9] and in [11] was 3 throughout. Besides, the selectivity ratio in series [12] and in [13] was 3 in each case. Besides, the half-maximal inhibitory concentration (IC50) in [2] and in series [10] was more than 30 µg/mL in each case. Also, the MIC in [2] and in series [10] was more than 30 µg/mL in each case. Further, the CC50 in [5], in series [7], in [8] and in series [14] was more than 100 µg/mL each time.
With `Cc1nc(-c2cccnc2)sc1-c1nnc(-c2ccc(Cl)cc2)o1`, the selectivity ratio in series [1], in [3], in series [4], in series [6], in series [9] and in [11] was 3 in each case. Also, the selectivity ratio in [12] and in [13] was 3 throughout. The IC50 in series [2] and in series [10] was more than 30 µg/mL each time. Besides, the minimum inhibitory concentration (MIC) in series [2] and in [10] was more than 30 µg/mL throughout. The CC50 in series [5], in series [7], in series [8] and in series [14] was more than 100 µg/mL in each case.
For `Cc1nc(-c2cccnc2)sc1-c1nnc(-c2cccnc2)o1`, the selectivity ratio in series [1] came out at 1; in [3], 1; in series [4], 1; in series [6], 2; in series [9] it was 2; in series [11], 1. In addition, the selectivity ratio in [12] and in series [13] was 2 throughout. For the same compound, the IC50 in series [2] and in [10] was more than 30 µg/mL each time. The MIC in [2] and in [10] was more than 30 µg/mL in each case. In addition, the CC50 in series [5], in [7], in series [8] and in series [14] was more than 100 µg/mL each time.

The values are drawn from ChEMBL document CHEMBL3822409, “Synthesis and antitubercular activity of new 1,3,4-oxadiazoles bearing pyridyl and thiazolyl scaffolds” (Bioorg Med Chem Lett, 2016).
